Literature values in patent publication US5028692A, “Gastrin releasing peptide antagonist” (Merck & Co., Inc., priority 1989, dated 1991).
Peptide text beside a SMILES is read from it.

Legend:
[1] = system: bombesin-stimulated growth

Compound	inhibition of clonal and mass culture growth (SCLC cell lines)	inhibition of bombesin-stimulated growth [1]
CSCC[C@H](NC(=O)[C@H](CC(C)C)NC(=O)CNC(=O)[C@H](Cc1ccc(O)cc1)NC(=O)[C@H](Cc1ccccc1)NC(=O)[C@H](CCCCN)NC(=O)[C@H](CC(N)=O)NC(=O)[C@@H]1CCCN1C(=O)[C@H](CC(=O)O)NC(=O)[C@H](C)NC(=O)[C@@H]1CCC(=O)N1)C(N)=O [physalaemin] (HELM PEPTIDE1{[Glp].A.D.P.N.K.F.Y.G.L.M.[am]}$$$$V2.0)	inhibits the clonal and mass culture growth of SCLC cell lines at picomolar concentrations	
[Leu^14 -.PSI.-CH2 NH-Leu^13 ] bombesin		potent inhibitor
